In publication PMC9637222, “Autoinducer-2 and bile salts induce c-di-GMP synthesis to repress the T3SS via a T3SS chaperone” (Nature Communications, 2022):
Values joined by “and” are separate entries in the source; they are usually repeats but may differ in a detail not shown here. Equal entries are not always repeated.

Assays:
YeaJ-LBDD239A = YeaJ-LBDD239A (Salmonella enterica subsp. enterica serovar Typhimurium, UniProt Q8ZPW4, D239A); assay: ITC: DPD/AI-2 binding to YeaJ-LBD D239A mutant; design: species or system S. Typhimurium; conditions: head prints YeaJ-LBDY239A, individual experiments, source data Fig. 2d
Method: (§1) ITC measurements were carried out at 20 °C with a Nano ITC Standard Volume isothermal calorimeter (TA Instruments, New Castle, DE) controlled by the ITCRun software. The N-terminal His6 tags of all purified proteins were removed before ITC analysis. For titrations with DPD/AI-2 (Omm Scientific), the tag-free proteins were dialyzed against a Tris buffer (25 mM Tris-HCl, 150 mM NaCl, pH 7.5) and diluted to 70 μM, while DPD/AI-2 was diluted with the same buffer to 700 μM. […] After being degassed, 1 ml of the protein and 250 μl of the ligand solution were added to the sample cell and the syringe, respectively. There were 25 injections per experiment and the stirring speed was 200 rpm. In control experiments, the ligand solution was titrated into the buffer in the sample cell to obtain the heat of dilution. Microcalorimetric data were corrected by subtracting the heats of dilution and fit to the independent binding site model using the NanoAnalyze software.

KMK13526-LBD = KMK13526-LBD (Pluralibacter gergoviae, UniProt A0A0J5L7D7); assay: ITC: DPD/AI-2 binding to KMK13526-LBD; conditions: ITC binding stoichiometry n, individual replicates, Supplementary Figure 7b
YeaJ-LBD = molecular target: T1, YeaJ-LBD (Salmonella enterica subsp. enterica serovar Typhimurium, UniProt Q8ZPW4); assay: ITC: DPD/AI-2 binding to YeaJ-LBD; design: species or system S. Typhimurium
T1 sequence (Q8ZPW4 30-304): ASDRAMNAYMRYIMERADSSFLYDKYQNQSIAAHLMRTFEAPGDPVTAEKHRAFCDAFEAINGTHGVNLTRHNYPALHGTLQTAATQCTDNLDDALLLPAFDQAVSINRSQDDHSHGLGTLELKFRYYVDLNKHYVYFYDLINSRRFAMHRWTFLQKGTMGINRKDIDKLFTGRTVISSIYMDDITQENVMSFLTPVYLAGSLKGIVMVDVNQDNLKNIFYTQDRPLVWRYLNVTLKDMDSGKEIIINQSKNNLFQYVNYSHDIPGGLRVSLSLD
Method: as §1

WP_034494714-LBD = WP_034494714-LBD (Buttiauxella agrestis, UniProt A0A085GF42); assay: ITC: DPD/AI-2 binding to WP_034494714-LBD; conditions: individual replicates, Supplementary Figure 7c
WP_000766134-LBD = molecular target: T2, WP_000766134-LBD (Escherichia coli O157:H7, UniProt A0A0H3JEN8); assay: ITC: DPD/AI-2 binding to GAPES1 domain of the YeaJ homolog from EHEC O157:H7
T2 sequence (A0A0H3JEN8 31-304): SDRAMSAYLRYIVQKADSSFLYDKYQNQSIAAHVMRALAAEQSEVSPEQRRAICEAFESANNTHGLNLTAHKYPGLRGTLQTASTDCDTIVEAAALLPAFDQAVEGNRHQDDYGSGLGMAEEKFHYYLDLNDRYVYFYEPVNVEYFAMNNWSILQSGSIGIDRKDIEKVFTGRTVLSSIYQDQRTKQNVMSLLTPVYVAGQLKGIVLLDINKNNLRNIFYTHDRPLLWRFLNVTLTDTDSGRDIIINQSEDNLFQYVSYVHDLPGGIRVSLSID

YeaJ = assay: In vitro DGC activity assay of YeaJ (membrane fractions, HPLC of c-di-GMP); type: biochemical, S. Typhimurium; conditions: 100 μM GTP; for Concentration of c-di-GMP: 30 °C
YeaJ-LBDY210A = YeaJ-LBDY210A (Salmonella enterica subsp. enterica serovar Typhimurium, UniProt Q8ZPW4, Y210A); assay: ITC: DPD/AI-2 binding to YeaJ-LBD Y210A mutant; design: species or system S. Typhimurium; conditions: individual experiments, source data Fig. 2d
Method: as §1

S. Typhimurium = assay: Cellular c-di-GMP quantification by LC-MS/MS; type: cell-based; conditions: for Change of intracellular c-di-GMP concentration (in words): exogenous DPD/AI-2 (10 μM, 30 min)
Method: For stimulation with AI-2, the DPD/AI-2 solution was added to the shaking culture at OD600 of 1.3, followed by another 30 min of incubation at 37 °C. For induction by porcine bile salts and individual bile components (Sigma-Aldrich), substances were added to the static culture at OD600 of 1.1, followed by another 30 min of incubation at 37 °C. About 15 ml of culture was centrifuged and the cells were washed twice with phosphate-buffered saline (PBS, pH 7.0). The cell pellets were resuspended in 500 μl of extraction solution (acetonitrile/methanol/water, 40:40:20, v/v/v) and cooled on ice for 15 min. The samples were boiled for 10 min at 95 °C and then cooled again on ice for 15 min. After centrifugation at 20,000×g and 4 °C for 10 min, supernatants were transferred to new tubes on ice. The remaining pellets were used for two more extraction steps with 500 μl of the extraction solution without heating. Pooled supernatants for each sample were lyophilized, and pellets were resolubilized in 200 μl of distilled water. C-di-GMP concentrations were then measured by LC-MS/MS[63] (AB SCIEX QTRAP 6500+ LC-MS/MS System). Intracellular levels of c-di-GMP were normalized to the number of bacterial cells for each sample.

[1] = molecular target: KMK13526-LBD (H216Y/Q245D) (Pluralibacter gergoviae, UniProt A0A0J5L7D7, H216Y/Q245D); conditions: ITC binding stoichiometry n, individual replicates, Supplementary Figure 7d
SipC = molecular target: T3, SipC (Salmonella typhimurium, UniProt E1WAC8); type: binding, S. Typhimurium; conditions: individual replicates, Supplementary Figure 19f
T3 construct: His6 (N, cleaved yes); made in house; host or cells: E. coli BL21(DE3) (pET28a-sipC)
Method: as §1
(§2) Supplementary Fig. 19 Isotherms representing binding of SicA and its variants with InvF, SipB and SipC as measured by ITC
(§3) ITC data and plots of injected heat for 25 automatic injections of 100 μM SicA (a, d, f),SicAK27A (b) or SicAN70A (c, e, g) into the sample cellcontaining 10 μM SipB (a-c), InvF (d, e), or SipC (f,g) are shown inthe upper and lower plots, respectively. […]

InvF = molecular target: T4, InvF (Salmonella typhimurium, UniProt P69343); conditions: individual replicates, Supplementary Figure 19d
T4 sequence (P69343 1-216): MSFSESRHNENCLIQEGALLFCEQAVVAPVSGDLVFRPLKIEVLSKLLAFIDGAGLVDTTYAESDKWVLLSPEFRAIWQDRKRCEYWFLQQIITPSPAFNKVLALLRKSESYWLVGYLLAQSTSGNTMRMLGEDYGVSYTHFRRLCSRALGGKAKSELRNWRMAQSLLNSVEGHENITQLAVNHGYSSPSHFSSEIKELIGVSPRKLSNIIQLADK
Method: as §1, §2, §3

SipB = molecular target: SipB; design: species or system S. Typhimurium; conditions: ITC, individual replicates, Supplementary Figure 19a; read-out: Kd, SicA binding to SipB
Method: as §1, §2, §3

[2] = individual experiments, source data Fig. 1d

Sequence of KMK13526-LBD (H216Y/Q245D) (A0A0J5L7D7 31-310 H216Y/Q245D): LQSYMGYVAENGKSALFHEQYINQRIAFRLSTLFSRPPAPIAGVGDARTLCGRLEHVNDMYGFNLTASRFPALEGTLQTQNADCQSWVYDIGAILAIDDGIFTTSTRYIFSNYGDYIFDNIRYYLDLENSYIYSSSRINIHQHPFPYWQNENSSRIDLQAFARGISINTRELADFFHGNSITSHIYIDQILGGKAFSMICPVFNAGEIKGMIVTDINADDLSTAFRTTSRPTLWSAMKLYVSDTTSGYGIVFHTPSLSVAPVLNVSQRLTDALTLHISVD
T3 sequence (E1WAC8 whole entry): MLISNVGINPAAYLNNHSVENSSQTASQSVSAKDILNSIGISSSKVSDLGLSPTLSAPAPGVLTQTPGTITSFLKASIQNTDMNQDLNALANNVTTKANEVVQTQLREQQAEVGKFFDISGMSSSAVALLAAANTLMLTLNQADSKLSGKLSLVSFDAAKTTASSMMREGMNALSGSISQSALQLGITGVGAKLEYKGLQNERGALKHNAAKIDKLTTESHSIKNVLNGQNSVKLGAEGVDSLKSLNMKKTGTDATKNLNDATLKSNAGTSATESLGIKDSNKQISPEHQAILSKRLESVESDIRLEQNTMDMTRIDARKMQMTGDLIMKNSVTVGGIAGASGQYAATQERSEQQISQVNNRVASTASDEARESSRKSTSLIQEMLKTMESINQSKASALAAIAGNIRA
T3 sequence (P69066 whole entry partner): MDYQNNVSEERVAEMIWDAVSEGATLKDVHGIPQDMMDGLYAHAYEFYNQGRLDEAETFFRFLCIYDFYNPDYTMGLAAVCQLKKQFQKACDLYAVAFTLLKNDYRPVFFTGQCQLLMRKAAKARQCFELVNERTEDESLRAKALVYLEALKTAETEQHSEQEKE
Sequence of WP_034494714-LBD (A0A085GF42 27-302): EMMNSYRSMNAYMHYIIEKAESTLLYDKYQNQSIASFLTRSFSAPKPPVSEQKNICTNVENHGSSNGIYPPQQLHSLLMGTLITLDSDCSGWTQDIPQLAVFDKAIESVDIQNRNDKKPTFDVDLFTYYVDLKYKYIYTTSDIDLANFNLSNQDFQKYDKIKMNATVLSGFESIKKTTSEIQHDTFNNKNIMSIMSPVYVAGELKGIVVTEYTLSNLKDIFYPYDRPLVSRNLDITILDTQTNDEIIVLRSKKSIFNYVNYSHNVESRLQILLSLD
Sequence of KMK13526-LBD (A0A0J5L7D7 31-310): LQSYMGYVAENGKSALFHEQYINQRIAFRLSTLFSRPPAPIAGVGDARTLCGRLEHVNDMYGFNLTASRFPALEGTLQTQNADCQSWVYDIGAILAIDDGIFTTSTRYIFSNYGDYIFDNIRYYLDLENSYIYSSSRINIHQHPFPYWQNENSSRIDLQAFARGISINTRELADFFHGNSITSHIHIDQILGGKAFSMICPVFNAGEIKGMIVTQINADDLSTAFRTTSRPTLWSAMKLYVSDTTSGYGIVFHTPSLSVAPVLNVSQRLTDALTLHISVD

Molecule: CC(=O)C(=O)[C@@H](O)CO [DPD/AI-2, autoinducer-2]
- Kd (YeaJ-LBDD239A): 17 µM
- n (complex stoichiometry) (YeaJ-LBDD239A): 0.97 and 0.93
- n, DPD/AI-2 binding to KMK13526-LBD (KMK13526-LBD): 0.93 and 1.03 and 0.86
- Kd (YeaJ-LBD; 20 °C, mean ± s.d. of three independent experiments): 0.15 ± 0.02 µM
- Kd (YeaJ-LBD; [2]): 0.16 µM and 0.13 µM
- n (complex stoichiometry) (YeaJ-LBD; [2]): 1.20 and 1.19 and 1.04
- n, DPD/AI-2 binding to WP_034494714-LBD (WP_034494714-LBD; ITC binding stoichiometry n): 0.94 and 0.97 and 0.98
- Kd (WP_034494714-LBD; read-out: Kd, DPD/AI-2 binding to WP_034494714-LBD, ITC): 32 µM and 39 µM and 38 µM
- n, DPD/AI-2 binding to WP_000766134-LBD (WP_000766134-LBD; ITC binding stoichiometry n, individual replicates, Supplementary Figure 7a): 1.18 and 1.17 and 1.13
- AI-2 binding affinity (in words) (WP_000766134-LBD; ITC, GAPES1 domain of the YeaJ homolog from EHEC O157:H7): high affinity
- Kd (WP_000766134-LBD; read-out: Kd, DPD/AI-2 binding to WP_000766134-LBD, ITC, individual replicates, Supplementary Figure 7a): 0.12 µM and 0.17 µM
- Concentration of c-di-GMP (YeaJ; 100 μM DPD/AI-2, 30 min): 19.68 µM and 20.02 µM and 21.70 µM
- Concentration of c-di-GMP (YeaJ; 100 μM DPD/AI-2, 60 min): 32.50 µM and 32.49 µM and 31.69 µM
- Concentration of c-di-GMP (YeaJ; 200 μM DPD/AI-2, 30 min): 39.23 µM and 36.03 µM and 36.70 µM
- Concentration of c-di-GMP (YeaJ; 200 μM DPD/AI-2, 60 min): 44.10 µM and 43.39 µM and 41.58 µM
- Effect on DGC activity of YeaJ in synthesizing c-di-GMP (in words) (YeaJ; in vitro, membrane fractions): stimulates the activity of YeaJ
- Kd (YeaJ-LBDY210A): 23 µM and 29 µM and 26 µM
- n (complex stoichiometry) (YeaJ-LBDY210A): 1.02 and 0.93 and 1.04
- Change of intracellular c-di-GMP concentration (in words) (S. Typhimurium; ΔluxS mutant): significant increase
- c-di-GMP (fmol/107 cells) (S. Typhimurium; ΔluxS, 10 μM DPD/AI-2 for 30 min, LB, OD600 1.3, biological replicates): 31.06 fmol/107 cells and 29.99 fmol/107 cells and 27.56 fmol/107 cells
- Change of intracellular c-di-GMP concentration (in words) (S. Typhimurium; ΔyeaJΔluxS mutant): did not increase
- n, DPD/AI-2 binding to KMK13526-LBDH216Y/Q245D [1]: 1.11 and 1.03 and 1.17

Molecule: SicA
- n, SicA binding to SipC (SipC; ITC binding stoichiometry n): 1.04 and 1.18 and 1.02
- Kd (SipC; ITC, read-out: Kd, SicA binding to SipC): 0.67 µM and 0.55 µM
- n, SicA binding to InvF (InvF; ITC binding stoichiometry n): 1.00 and 1.13 and 1.16
- Kd (InvF; read-out: Kd, SicA binding to InvF, ITC): 0.47 µM and 0.42 µM and 0.49 µM
- Kd (SipB): 0.5 µM and 0.56 µM and 0.54 µM
